{"source": "patent US20240366555A1", "about": "“SELECTIVE MTORC2 INHIBITOR AND USES THEREOF” (ALIAD BIOPHARMA, priority 2021, published 2024)", "key": {"mTORC1": {"molecular_target": "T1, mTORC1 (Homo sapiens, UniProt P42345)", "T1 construct": "mTORC1 was isolated by co-immunoprecipitation using Flag antibody; made in house; host or cells: HEK 293T transfected with Flag-Raptor", "test": "In vitro mTORC1 kinase assay (GST-S6K Thr389 phosphorylation, immunoblot)", "format": "biochemical", "settings": "assay validation with dual mTOR inhibitor", "procedure": "In order to investigate the effect on mTORC1 activity of norathyriol, in vitro mTORC1 kinase assay was performed. After introducing Flag-Raptor into a human cell line 293T, mTORC1 was isolated by co-immunoprecipitation using Flag antibody. In addition, the activity of the isolated mTORC1 complex was evaluated by measuring phosphorylation of GST-S6K Thr389, which is a selective substrate of mTORC1, by immunoblot analysis. In the control group in which Flag-Raptor was not introduced, GST-S6K Thr389 phosphorylation was almost not measured. […] Therefore, it was judged that GST-S6K Thr389 phosphorylation measured in the in vitro mTORC1 kinase assay was generated by mTORC1. In order to evaluate the inhibitory effect of norathyriol on mTORC1 activity, norathyriol was pretreated for 15 minutes, and then in vitro mTORC1 kinase assay was carried out.\nMore specifically, the HEK 293T cells were cultured in a DMEM culture medium in which 10% heat inactivated FBS+1× Glutamax was added. 8×10^5 HEK 293T cells were seeded in a 100 mm culture dish, and then they were cultured for 1 day. After mixing 42 μl Lipofectamine, 21 μl plus reagent, and 21 μg Flag-Raptor plasmid DNA to 1 ml OPTI-MEM, it was shaken at a room temperature for 25 minutes to prepare a transfection DNA mixture. The transfection DNA mixture was slowly treated on the cells drop by drop, and after culturing for 5 hours, the culture medium was replaced with a new culture medium. […] The protein concentration of the cell lysate was determined with BCA protein assay kit (Thermo Fisher Scientific). […] Thr389 phosphorylation of GST-S6K1, which is a substrate of mTORC1, was measured by performing immunoblot analysis using phospho Thr389 p70 S6 kinase antibody (#9205S, Cell Signaling) and GST antibody (#A190-122A, Bethyl Laboratories). […]"}, "mTORC2 [1]": {"molecular_target": "T2, mTORC2 (Homo sapiens, UniProt P42345)", "test": "LocaTOR2 assay in A549 cells (FRB-AKT2 Ser473 phosphorylation)", "format": "cell-based", "design": "endogenous in cells; host or cells: A549 (transfected only with the FKBP-recruiter and the FRB-AKT2 reporter)", "settings": "A549, KRas4B^C30-FKBP recruiter, AP21967; norathyriol at 30 μM and 60 μM; FIG. 9a", "description": "mTORC2 is located in the cell membrane, endosome, ER and mitochondrial membrane. mTORC2 forms an mTORC2 complex as an activated form of ras (ras-GTP) operates as a scaffold in the cell membrane, whereas it forms an mTORC2 complex as mLST8 operates as a scaffold in the endosome. By this difference, the mTORC2 inhibitory effect of norathyriol may be shown differently depending on the subcellular compartment where mTORC2 is located. In order to investigate the mTORC2 inhibitory effect of norathyriol depending on the subcellular compartment location, in vivo LocaTOR2 assay was performed (Ebner et al. (2017) J. Cell Biol. 216:343-353). After introducing FKBP-recruiter selectively located in the membrane of the subcellular compartment and FRB^T2098L-AKT2 which is an mTORC2 substrate, AP21967 was treated for 40 minutes to induce binding between the FKBP-recruiter and FRB-AKT2, and FRB-AKT2 was moved to a specific subcellular compartment. In addition, the degree of phosphorylation of Ser473 of FRB-Akt by mTORC2 located in the site thereof was investigated by immunoblot analysis."}, "mTORC2 [2]": {"molecular_target": "T2, mTORC2", "test": "In vitro mTORC2 kinase assay (GST-Akt Ser473 phosphorylation, immunoblot)", "format": "biochemical", "design": "mTORC was isolated by co-immunoprecipitation using Flag antibody; made in house; host or cells: HEK 293T transfected with Flag-mLST8", "settings": "assay validation with dual mTOR inhibitor", "procedure": "After introducing Flag-mLST8 into a human cell line 293T, mTORC was isolated by co-immunoprecipitation using Flag antibody. In the in vitro mTORC2 kinase assay, the activity of the isolated mTORC2 was evaluated by measuring phosphorylation of GST-Akt Ser473, which is a selective substrate of mTORC2 by immunoblot analysis. In the control group in which Flag-mLST8 was not introduced, GST-Akt Ser473 phosphorylation was almost not measured. […] Therefore, it was judged that GST-Akt Ser473 phosphorylation measured in the in vitro mTORC2 kinase assay was generated by mTORC2. In order to evaluate the inhibitory effect of norathyriol and athyriol on mTORC2 activity, norathyriol or athyriol was pretreated for 15 minutes, and then in vitro mTORC2 kinase assay was carried out.\nMore specifically, the HEK 293T cells were cultured in a DMEM culture medium in which 10% heat inactivated FBS+1× Glutamax was added. 8×10^5 HEK 293T cells were seeded in a 100 mm culture dish, and then they were cultured for 1 day. After mixing 42 μl Lipofectamine, 21 μl plus reagent, and 21 μg Flag-mLST8 plasmid DNA to 1 ml OPTI-MEM, it was shaken at a room temperature for 25 minutes to prepare a transfection DNA mixture. The transfection DNA mixture was slowly treated on the cells drop by drop, and after culturing for 5 hours, the culture medium was replaced with a new culture medium. After additional culturing for 48 hours, the cells were […] with CHAPS buffer (50 mM HEPES (pH7.4), 100 mM NaCl, 2 mM EDTA, 0.3% CHAPS, 10 mM sodium pyrophosphate, 10 mM sodium β-glycerophosphate, 1 mM PMSF, 1 μg/ml leupeptin, 1 μg/ml pepstatin A, 10 nM aprotinin, 1 mM Na3VO4, 10 nM calyculin A), and centrifuged at 4° C. at 13,000 rpm for 10 minutes to obtain the supernatant and acquire cell lysate. The protein concentration of the cell lysate was determined with BCA protein assay kit (Thermo Fisher Scientific). After adding anti-Flag M2 affinity gel (50% slurry, Sigma) of 30 μl to the cell lysate of 1 mg, it was shaken at 4° C. for 3 hours. After that, affinity gel was washed with CHAPS buffer 3 times and kinase buffer (50 mM HEPES (pH7.5), 2 mM DTT, 10 mM MnCl2, 10 mM MgCl2) for washing once. After adding kinase buffer [-substrate-ATP] […] After that, kinase buffer (50 mM HEPES (pH7.5), 2 mM DTT, 10 mM MgCl2, 10 mM MnCl2, 1 mM ATP, 500 ng GST-AKT, 10 nM calyculin A) of 10 μl was added and shaken at 30° C. for 45 minutes to progress a kinase reaction. […] Ser473 phosphorylation of GST-AKT, which is a substrate of mTORC2, was measured by performing immunoblot analysis using AKT antibody (#4691, Cell signaling) and phospho Ser473 AKT antibody (#4060, Cell signalig). In order to measure the mTORC2 activity inhibitory effect by the compound, both the kinase buffer [-substrate-ATP] and the kinase buffer included the compound."}, "[3]": {"molecular_target": "T3, mTORC2 located in late endosome of dendritic spines (Rattus norvegicus, UniProt P42346)", "T3 construct": "endogenous in cells; host or cells: primary cultured cerebral neurons from SD-rat E16 embryos, transduced by lentivirus only with mCherry-FRB-AKT2 and Rab7-FKBP", "test": "LocaTOR2 assay-immunofluorescent staining in primary cultured cerebral neurons (mGluR-dependent mTORC2 activation)", "format": "cell-based", "settings": "FIG. 11a", "description": "By combining Loca-TOR2 assay and immunofluorescence staining, changes in mTORC2 activity located in the late endosome during the induction process of long term depression (LTD) occurring in dendritic spines of primarily cultured cerebral neurons were investigated, and the inhibitory effect of norathyriol on these changes was investigated.\nSpecifically, mCherry-FRB-AKT2 and Rab7-FKBP were introduced using a lentiviral vector on the primarily cultured cerebral neuron on the DIV5 day, and AP21967 was treated on the DIV17 day to induce binding of FRB and FKBP, and thereby, mCherry-FRB-AKT2 was located in the late endosome. After that, DHPG, which is an mGluR agonist inducing long-term depression, was treated. […] In addition, by measuring Ser473 phosphorylation staining of mCherry-FRB-AKT2 overlapped with PSD-95 staining, which is a protein located in dendritic spines, by immunofluorescent staining, changes in mTORC2 activity located in the late endosome in the dendritic spines can be investigated. After staining using a phospho-Ser473 AKT antibody by immunofluorescent staining, the degree of AKT Ser473 phosphorylation was quantified by counting the number of each fluorescent puncta larger than 0.4 μm or more in size in the dendrites (green). In addition, the dendritic spines were observed by staining with PSD95 antibody (yellow), and the location of mCherry-FRB-AKT2 was investigated by observing mCherry fluorescence (cherry color).\nSD-rat gestational age 16-day mice (Orient Bio) were purchased and the mice were anesthetized with CO2 and then embryos were taken out. Until the forebrain was isolated and the meninges were removed, it was performed by the same method as the hippocampal culture, and when the cerebrum was isolated, the dorsal cortex or ventral cortex was cut with a bended syringe needle, and it was collected in new HBSS. The tissue isolated and collected was transferred to a 15 ml tube with a Pasteur pipette, and then in order to remove the remaining meninges and blood vessels, and the like, 2 ml HBSS and 0.25% trypsin of 2 ml were added, and it was reacted in a 37° C. shaker for 10-15 minutes. The cells were settled and the supernatant was removed leaving 1-2 ml, and then trypsin was inactivated by adding DMEM comprising the equal amount of 20% FBS. After centrifugation at 700 rpm for 15 minutes, the supernatant was discarded all and the collected tissue was released, and then Neurobasal culture medium (+glutamate) of 2 ml was added, and titrated with a pipette, and the cells were isolated by changing to a pipette with a narrow end. […] The number of cells was measured with a hemocytometer, and then the cells were seeded in a coated culture dish. […]"}, "Arc protein expression": {"test_system": "Arc protein expression", "test": "mGluR-dependent Arc protein expression in cerebral neurons", "format": "cell-based", "settings": "DHPG alone; FIG. 12a", "procedure": "When mGluR is activated in dendritic spines of cerebral neurons, Arc protein is synthesized, and the Arc protein promotes endocytosis of an AMPA receptor to form LTD.\nSpecifically, DHPG was treated to cerebral neurons, which were obtained by primary culture of white mouse embryo E16 cerebral regions and differentiated for […] (DIV21), for 5 minutes or 10 minutes to activate mGluR. As an Arc antibody, Arc protein (green) and PSD95 (red), which is a marker antibody of postsynaptic density of a synapse, were under\nAfter double immunofluorescent staining of Arc protein with an Arc antidody (green) and PSD95, a marker of postsynaptic density of synapse, with an PSD95 antibody (red), Arc expression in dendritic spines was quantified as the number of Arc+PSD95 double stained puncta per 20 μm neurite length by confocal scanning microscopic scanning."}}}
{"smiles": "COc1ccc(-c2ccc3c(N4CCOC[C@@H]4C)nc(N4CCOC[C@@H]4C)nc3n2)cc1CO", "note": "[AZD8055, reference compound]", "values": [{"measurement": "GST-S6K Thr389 phosphorylation", "setting": "mTORC1", "result": "mostly reduced"}, {"measurement": "FRB-AKT2 Ser473 phosphorylation, mTORC2 located in cell membrane", "setting": "mTORC2 [1]", "result": "reduced the phosphorylation of FRB-AKT2 Ser473 to a level of the control group"}, {"measurement": "GST-Akt Ser473 phosphorylation", "setting": "mTORC2 [2]", "result": "mostly reduced"}]}
{"smiles": "NC(C(=O)O)c1cc(O)cc(O)c1", "note": "(stereo not shown) [DHPG, 3,5-dihydroxyphenylglycine]", "values": [{"measurement": "increase of Ser473 phosphorylation of mCherry-FRB-AKT2 located in late endosome of dendritic spines", "setting": "[3]; after 5 minutes of treating DHPG", "result": 55, "unit": "%"}, {"measurement": "increase of Ser473 phosphorylation of mCherry-FRB-AKT2 located in late endosome of dendritic spines", "setting": "[3]; after 10 minutes of treating DHPG", "result": 72, "unit": "%"}, {"measurement": "Ser473 phosphorylation of mCherry-FRB-AKT2 located in late endosome of dendritic spines", "setting": "[3]; after 20 minutes of treating DHPG", "result": "reduced to the level of the control group"}, {"measurement": "Arc synthesis in dendritic spines (immunofluorescent staining)", "setting": "Arc protein expression", "result": "increased up to 10 minutes after treating DHPG"}]}
